# Test results as given in ChEMBL document CHEMBL1201862, “PubChem BioAssay data set” (2004).
# Calls of active or inactive are those of the source.
# Columns and labels:
# Streptococcus = experiment: Luminescence Microorganism-Based Dose Response Follow up to Identify Compounds Cytotoxic to Streptococcus. [Related pubchem assays: 1677 (Project Summary), 1915, 1914, 1902 (Retest at Dose), 1900 (Counter Screen), 1662 (Primary HTS)]; format: functional, organism-based
# [1] = target: Photoreceptor-specific nuclear receptor (Homo sapiens, UniProt Q9Y5X4); format: functional;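 further: potency for compounds that break the NR2E3 corepressor complex and count as activators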
# [2] = target: Peroxisome proliferator-activated receptor gamma/Nuclear receptor corepressor 2 (Homo sapiens, UniProt P37231+Q9Y618); format: functional
# Sequence of Peroxisome proliferator-activated receptor gamma/Nuclear receptor corepressor 2 (P37231 whole entry): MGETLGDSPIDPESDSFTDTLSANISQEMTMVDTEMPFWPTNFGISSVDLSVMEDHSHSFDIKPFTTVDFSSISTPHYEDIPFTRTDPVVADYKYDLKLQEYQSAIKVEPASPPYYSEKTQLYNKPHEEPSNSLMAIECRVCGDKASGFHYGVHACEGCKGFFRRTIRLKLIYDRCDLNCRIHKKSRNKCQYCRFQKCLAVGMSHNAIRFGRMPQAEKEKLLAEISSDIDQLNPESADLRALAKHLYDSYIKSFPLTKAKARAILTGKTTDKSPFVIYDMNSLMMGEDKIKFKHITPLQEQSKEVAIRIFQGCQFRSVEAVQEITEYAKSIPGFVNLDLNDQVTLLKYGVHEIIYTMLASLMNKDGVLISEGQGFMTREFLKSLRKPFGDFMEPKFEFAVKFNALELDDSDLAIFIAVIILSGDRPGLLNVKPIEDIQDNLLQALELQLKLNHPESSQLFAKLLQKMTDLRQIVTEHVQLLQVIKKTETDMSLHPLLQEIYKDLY
# Sequence of Peroxisome proliferator-activated receptor gamma/Nuclear receptor corepressor 2 (Q9Y618 whole entry): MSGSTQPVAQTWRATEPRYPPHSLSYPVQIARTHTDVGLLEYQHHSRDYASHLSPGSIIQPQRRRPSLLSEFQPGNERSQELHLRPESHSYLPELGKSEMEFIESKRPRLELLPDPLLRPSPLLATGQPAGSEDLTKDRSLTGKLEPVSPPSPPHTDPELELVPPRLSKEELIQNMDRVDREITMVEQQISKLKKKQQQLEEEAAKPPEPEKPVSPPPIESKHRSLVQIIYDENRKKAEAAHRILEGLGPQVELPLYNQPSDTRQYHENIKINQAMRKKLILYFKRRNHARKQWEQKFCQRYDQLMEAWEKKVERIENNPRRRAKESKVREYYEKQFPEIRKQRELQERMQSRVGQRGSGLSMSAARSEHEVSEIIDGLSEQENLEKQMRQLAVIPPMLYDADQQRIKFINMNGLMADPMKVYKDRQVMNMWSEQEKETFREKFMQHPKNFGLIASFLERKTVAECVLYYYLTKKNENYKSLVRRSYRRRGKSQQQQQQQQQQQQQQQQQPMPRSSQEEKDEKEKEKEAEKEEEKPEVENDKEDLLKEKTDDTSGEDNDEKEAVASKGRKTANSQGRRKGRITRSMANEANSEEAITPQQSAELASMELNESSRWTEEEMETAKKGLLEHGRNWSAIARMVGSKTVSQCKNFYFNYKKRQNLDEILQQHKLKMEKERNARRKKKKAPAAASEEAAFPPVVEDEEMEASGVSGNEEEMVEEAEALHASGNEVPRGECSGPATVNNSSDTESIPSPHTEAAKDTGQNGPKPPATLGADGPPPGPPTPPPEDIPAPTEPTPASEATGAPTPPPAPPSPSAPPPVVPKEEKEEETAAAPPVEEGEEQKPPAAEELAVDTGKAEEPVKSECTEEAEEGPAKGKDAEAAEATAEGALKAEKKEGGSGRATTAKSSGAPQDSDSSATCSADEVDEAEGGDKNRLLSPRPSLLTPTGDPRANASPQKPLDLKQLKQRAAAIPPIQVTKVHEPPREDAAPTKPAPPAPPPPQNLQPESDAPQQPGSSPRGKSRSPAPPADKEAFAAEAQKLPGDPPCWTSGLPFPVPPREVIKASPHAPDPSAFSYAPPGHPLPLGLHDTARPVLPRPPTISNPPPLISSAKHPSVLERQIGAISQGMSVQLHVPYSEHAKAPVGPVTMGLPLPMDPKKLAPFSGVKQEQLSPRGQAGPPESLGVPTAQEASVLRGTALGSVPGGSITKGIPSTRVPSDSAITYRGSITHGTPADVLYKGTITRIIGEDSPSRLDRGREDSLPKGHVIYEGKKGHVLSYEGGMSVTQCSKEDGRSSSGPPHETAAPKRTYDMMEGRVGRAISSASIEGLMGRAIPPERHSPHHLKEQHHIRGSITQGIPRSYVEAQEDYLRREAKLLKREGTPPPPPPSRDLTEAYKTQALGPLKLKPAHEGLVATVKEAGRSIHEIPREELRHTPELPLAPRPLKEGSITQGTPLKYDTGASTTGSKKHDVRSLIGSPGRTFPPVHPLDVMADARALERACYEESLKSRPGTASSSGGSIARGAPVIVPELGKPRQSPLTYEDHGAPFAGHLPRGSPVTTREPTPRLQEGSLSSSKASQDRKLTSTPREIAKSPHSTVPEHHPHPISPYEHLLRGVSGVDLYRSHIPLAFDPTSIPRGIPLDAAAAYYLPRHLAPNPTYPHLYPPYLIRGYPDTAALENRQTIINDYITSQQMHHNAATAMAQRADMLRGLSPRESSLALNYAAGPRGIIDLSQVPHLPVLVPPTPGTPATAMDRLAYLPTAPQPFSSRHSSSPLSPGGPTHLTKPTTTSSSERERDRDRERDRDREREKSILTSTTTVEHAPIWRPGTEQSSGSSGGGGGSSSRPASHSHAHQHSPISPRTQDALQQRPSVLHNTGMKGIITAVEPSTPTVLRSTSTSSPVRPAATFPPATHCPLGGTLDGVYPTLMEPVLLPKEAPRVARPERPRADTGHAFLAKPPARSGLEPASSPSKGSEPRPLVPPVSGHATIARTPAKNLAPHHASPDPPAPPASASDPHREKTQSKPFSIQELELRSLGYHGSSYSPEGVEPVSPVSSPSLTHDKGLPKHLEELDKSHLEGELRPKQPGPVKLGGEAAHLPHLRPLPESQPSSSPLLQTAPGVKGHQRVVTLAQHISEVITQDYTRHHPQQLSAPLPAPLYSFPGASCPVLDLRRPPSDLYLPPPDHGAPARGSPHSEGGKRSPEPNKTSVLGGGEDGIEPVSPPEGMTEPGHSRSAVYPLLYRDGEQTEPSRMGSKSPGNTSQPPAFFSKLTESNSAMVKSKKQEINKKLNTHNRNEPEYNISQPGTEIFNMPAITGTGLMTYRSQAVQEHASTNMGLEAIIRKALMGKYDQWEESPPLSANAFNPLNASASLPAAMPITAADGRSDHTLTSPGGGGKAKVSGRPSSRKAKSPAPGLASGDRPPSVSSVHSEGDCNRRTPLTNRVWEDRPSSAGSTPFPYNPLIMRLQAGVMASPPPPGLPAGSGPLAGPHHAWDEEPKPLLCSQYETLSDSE
# [3] = DRD fibroblast viability loss – cell-based, non-viral oncogenic, luminescence, dose response (AID 1934); format: functional; conditions: Homo sapiens
# BJ [4] = experiment: growth inhibition of engineered Ras-driven BJ cells – cell-based, alamar blue fluorescence, cherrypicked samples, dose response (AID 2631); format: functional; conditions: Homo sapiens;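 further: confirmatory dose-response assay in RAS-dependent BJ fibroblasts engineered with TERT, LT and ST, with cytotoxicity read by fluorescence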
# HEK293 [5] = experiment: cells; format: functional, cell-based; conditions: Homo sapiens
# HEK293 [6] = experiment: cells; conditions: Homo sapiens
# BJ [7] = experiment: BJ-TERT-LT-ST fibroblast viability loss – cell-based, RAS-independent, luminescence, dose response (AID 1935); format: functional; conditions: Homo sapiens;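 further: BJ fibroblasts immortalized with TERT plus LT and ST oncogenes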
# [8] = target: Transitional endoplasmic reticulum ATPase (Homo sapiens, UniProt P55072); experiment: p97 ATPase inhibitors, dose response, biochemical (AID 1534)
# Sequence of Transitional endoplasmic reticulum ATPase (Homo sapiens, UniProt P55072) (P55072 whole entry): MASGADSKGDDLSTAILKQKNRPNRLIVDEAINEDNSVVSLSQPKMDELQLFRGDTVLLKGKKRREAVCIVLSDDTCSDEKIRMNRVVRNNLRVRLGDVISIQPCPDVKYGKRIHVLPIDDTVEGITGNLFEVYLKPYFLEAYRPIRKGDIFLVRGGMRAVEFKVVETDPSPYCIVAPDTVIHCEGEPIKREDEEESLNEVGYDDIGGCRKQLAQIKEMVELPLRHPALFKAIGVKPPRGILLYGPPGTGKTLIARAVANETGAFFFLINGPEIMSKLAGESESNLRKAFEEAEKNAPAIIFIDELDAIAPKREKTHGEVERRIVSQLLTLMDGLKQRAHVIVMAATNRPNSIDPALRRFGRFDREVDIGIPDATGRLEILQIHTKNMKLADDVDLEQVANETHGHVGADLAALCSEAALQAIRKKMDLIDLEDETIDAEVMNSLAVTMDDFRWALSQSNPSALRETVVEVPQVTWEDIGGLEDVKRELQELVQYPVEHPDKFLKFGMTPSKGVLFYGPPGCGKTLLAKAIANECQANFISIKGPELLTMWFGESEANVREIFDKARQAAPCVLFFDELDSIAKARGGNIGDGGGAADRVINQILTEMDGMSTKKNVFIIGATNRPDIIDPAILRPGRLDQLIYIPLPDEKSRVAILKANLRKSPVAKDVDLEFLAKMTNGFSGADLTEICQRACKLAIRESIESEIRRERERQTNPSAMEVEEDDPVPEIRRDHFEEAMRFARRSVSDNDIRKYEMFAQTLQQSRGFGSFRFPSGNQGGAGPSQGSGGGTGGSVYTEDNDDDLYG
# [9] = target: Transitional endoplasmic reticulum ATPase (Homo sapiens, UniProt P55072, C522A); experiment: C522A mutant p97 ATPase inhibitors, dose response, counter-screen for p97 inhibitor project, biochemical, luminescence (AID 1544)
# Sequence of Transitional endoplasmic reticulum ATPase (Homo sapiens, UniProt P55072, C522A) (P55072 2-806 C522A limits assumed): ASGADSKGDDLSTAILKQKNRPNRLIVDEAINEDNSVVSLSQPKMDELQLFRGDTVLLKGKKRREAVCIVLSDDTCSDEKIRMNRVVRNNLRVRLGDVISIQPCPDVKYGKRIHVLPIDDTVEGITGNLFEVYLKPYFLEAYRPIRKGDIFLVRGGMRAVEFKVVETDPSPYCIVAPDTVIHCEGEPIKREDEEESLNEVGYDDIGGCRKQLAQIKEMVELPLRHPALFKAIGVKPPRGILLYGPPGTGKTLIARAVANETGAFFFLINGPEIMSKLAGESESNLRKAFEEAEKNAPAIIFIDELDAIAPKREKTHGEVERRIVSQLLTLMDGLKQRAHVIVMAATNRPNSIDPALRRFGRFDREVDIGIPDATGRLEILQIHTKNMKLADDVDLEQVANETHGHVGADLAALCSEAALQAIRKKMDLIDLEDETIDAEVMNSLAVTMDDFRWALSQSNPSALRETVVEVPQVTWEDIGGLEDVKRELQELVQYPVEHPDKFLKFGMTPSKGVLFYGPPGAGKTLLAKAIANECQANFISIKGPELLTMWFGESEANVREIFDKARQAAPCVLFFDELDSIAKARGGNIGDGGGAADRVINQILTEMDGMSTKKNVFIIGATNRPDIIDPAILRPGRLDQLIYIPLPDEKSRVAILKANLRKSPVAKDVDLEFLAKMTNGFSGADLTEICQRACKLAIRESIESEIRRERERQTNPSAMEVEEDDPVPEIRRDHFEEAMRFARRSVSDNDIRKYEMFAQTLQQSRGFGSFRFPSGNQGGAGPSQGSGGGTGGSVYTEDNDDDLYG
# [10] = target: T1, Replicative DNA helicase DnaB (Mycobacterium tuberculosis, UniProt P9WMR3); experiment: DnaB intein splicing inhibitors, dose response, biochemical, cell-free fluorescence (AID 449749); format: functional
# T1 sequence (P9WMR3 whole entry): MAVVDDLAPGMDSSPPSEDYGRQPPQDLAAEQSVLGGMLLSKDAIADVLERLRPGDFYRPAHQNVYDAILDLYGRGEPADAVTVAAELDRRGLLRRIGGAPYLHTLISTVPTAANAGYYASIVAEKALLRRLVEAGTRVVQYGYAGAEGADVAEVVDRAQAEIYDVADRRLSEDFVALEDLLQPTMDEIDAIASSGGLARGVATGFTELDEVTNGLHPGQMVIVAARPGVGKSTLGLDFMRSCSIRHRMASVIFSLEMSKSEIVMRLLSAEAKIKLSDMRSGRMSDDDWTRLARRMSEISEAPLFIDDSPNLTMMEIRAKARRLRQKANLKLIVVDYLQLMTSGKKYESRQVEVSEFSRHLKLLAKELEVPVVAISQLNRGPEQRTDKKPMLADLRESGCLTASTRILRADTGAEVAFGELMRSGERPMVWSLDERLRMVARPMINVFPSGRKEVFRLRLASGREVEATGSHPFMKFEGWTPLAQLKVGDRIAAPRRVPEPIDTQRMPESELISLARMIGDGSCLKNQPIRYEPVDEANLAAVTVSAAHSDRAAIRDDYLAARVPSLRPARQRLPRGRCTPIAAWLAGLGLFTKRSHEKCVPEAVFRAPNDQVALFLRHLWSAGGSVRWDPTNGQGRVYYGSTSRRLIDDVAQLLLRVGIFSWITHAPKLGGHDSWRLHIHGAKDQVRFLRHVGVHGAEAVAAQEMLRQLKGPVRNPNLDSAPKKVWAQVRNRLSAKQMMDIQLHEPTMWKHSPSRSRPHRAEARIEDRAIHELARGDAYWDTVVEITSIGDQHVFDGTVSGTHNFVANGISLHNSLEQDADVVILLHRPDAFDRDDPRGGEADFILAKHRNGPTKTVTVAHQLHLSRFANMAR
# Tumor necrosis factor = Tumor necrosis factor (Homo sapiens, UniProt P01375); experiment: analog potency on TNFa NF-kB signaling – cell-based, revised, SAR follow-up (AID 2337); format: functional
# Sequence of Tumor necrosis factor (P01375 whole entry): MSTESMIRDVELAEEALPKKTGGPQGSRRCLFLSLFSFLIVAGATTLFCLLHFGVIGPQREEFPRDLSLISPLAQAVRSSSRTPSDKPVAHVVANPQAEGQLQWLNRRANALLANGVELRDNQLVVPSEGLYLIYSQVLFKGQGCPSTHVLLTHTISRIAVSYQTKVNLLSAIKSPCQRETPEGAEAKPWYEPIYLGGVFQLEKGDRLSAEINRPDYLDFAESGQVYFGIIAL
# Protein RecA = target: T2, Protein RecA (Mycobacterium tuberculosis, UniProt P9WHJ3); experiment: Fluorescence Cell-Free Homogeneous Dose Retest to Identify Inhibitors of RecA-Intein Splicing Activity. [Related pubchem assays (depositor defined):AID2097, AID2223, AID489010, AID492950]; format: functional
# T2 sequence (P9WHJ3 whole entry): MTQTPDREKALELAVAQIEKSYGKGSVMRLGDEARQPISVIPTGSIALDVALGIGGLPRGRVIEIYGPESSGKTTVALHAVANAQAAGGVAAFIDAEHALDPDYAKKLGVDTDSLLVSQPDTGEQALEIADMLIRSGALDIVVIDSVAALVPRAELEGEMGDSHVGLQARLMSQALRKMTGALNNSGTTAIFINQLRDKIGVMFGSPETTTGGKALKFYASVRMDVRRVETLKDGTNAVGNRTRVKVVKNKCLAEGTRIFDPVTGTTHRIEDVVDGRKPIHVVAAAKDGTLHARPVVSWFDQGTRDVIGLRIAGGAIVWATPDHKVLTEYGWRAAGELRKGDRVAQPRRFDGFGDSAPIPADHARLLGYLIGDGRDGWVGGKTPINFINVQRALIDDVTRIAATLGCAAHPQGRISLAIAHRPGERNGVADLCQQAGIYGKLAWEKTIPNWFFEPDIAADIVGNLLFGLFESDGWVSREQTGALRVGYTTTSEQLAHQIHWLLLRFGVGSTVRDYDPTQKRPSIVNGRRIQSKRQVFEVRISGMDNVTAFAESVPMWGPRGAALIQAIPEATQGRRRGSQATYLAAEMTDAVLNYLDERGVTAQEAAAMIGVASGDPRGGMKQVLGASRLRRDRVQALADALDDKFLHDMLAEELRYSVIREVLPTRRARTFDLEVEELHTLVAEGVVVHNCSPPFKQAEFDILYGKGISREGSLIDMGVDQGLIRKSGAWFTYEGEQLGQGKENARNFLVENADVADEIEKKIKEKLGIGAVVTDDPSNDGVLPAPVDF
# HEK293 [11] = experiment: NOD2 signaling inhibitors in MDP-stimulated cells, cell-based, uHTS, luminescence (AID 2001); format: functional; conditions: Homo sapiens
# BJ [12] = experiment: cells; format: functional, cell-based; conditions: Homo sapiens
# BJ [13] = experiment: BJ-TERT fibroblast viability loss – cell-based, RAS-independent, luminescence, dose response (AID 1933); format: functional; conditions: Homo sapiens
# [14] = target: T3, Heat shock factor protein 1 (Mus musculus, UniProt P38532); experiment: enhancement of HSF1-driven luciferase signal – cell-based, NIH3T3, luminescence, dose retest, confirmation (AID 435004); format: functional;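 further: stress induced by proteasome inhibitor MG132 added 30 min after compound; luciferase reporter driven by HSF1 response element in NIH3T3 cells; actives raise luminescence as potentiators of the MG132 stress response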
# T3 sequence (P38532 whole entry): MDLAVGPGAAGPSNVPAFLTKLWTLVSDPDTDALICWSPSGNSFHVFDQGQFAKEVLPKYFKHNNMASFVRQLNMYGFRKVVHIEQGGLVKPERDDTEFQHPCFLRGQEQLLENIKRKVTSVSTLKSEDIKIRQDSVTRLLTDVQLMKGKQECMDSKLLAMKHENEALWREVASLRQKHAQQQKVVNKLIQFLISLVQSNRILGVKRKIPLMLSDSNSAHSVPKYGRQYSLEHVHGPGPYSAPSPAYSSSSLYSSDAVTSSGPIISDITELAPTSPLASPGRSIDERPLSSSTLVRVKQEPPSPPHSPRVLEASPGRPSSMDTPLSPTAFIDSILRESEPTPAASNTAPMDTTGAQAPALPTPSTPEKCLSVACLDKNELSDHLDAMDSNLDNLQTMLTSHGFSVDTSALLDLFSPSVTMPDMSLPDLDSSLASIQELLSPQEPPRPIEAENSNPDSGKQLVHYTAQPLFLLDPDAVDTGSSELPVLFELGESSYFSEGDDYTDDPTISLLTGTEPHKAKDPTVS
# [15] = target: Nucleotide-binding oligomerization domain-containing protein 1 (Homo sapiens, UniProt Q9Y239); experiment: blockers of NOD1 pathway activity – revised, SAR follow-up (AID 2333); format: functional
# [16] = Luminescent dose response cell-based high throughput screening assay for inhibitors of the Janus kinase 2 mutant JAK2V617F. [Related pubchem assays: 1446 (Primary screen.), 1521 (Confirmation assay.), 1486 (Counter screen.)]; format: functional
# Vero = experiment: cells; format: functional; conditions: Chlorocebus sabaeus
# HEK293 [17] = experiment: inhibition of NOD1-driven NF-kB reporter – cell-based, luminescence, uHTS, primary screen (AID 1578); format: functional; conditions: Homo sapiens
# HEK293 [18] = experiment: cells; format: functional, cell-based; conditions: Homo sapiens; remark: listed apart in the source
smiles,measurement,setting,value
COc1cccc(C(=O)n2c3ccccc3c3ccccc32)c1,EC50,Streptococcus,> 500 µM (not active)
Cc1cc(-c2ccc(Cl)cc2)c(C#N)c(N)n1,IC50,[1],33 µM (not active)
same,IC50,[2],3.26 µM (active)
Nc1nc(CCl)nc(Nc2ccc3ccccc3c2)n1,EC50,[3],0.289 µM (active)
same,EC50,BJ [4],4.62 µM (active)
same,IC50,HEK293 [5],> 20 µM (inactive)
same,IC50,HEK293 [6],> 20 µM (inactive)
same,EC50,BJ [7],8.32 µM (inconclusive)
same,IC50,[8],> 50 µM (not active)
same,IC50,[9],> 50 µM (not active)
same,AC50,[10],15.4 µM (active)
same,IC50,Tumor necrosis factor,11.1 µM (active)
same,EC50,Protein RecA,19.4 µM (active)
same,IC50,HEK293 [11],7.7 µM (active)
same,EC50,BJ [12],0.717 µM (inconclusive)
same,EC50,BJ [13],< 0.12 µM (active)
same,EC50,[14],> 260 µM (inactive)
same,IC50,[15],3.43 µM (active)
same,IC50,[16],0.476 µM (active)
same,CC50,Vero,1.24 µM (active)
same,EC50,HEK293 [17],11.1 µM (active)
same,IC50,HEK293 [18],5.4 µM (active)
